{
  "source": "paper PMC5515859",
  "about": "“Metabolism of F18, a Derivative of Calanolide A, in Human Liver Microsomes and Cytosol” (Frontiers in Pharmacology, 2017)",
  "key": {"[1]": {"system": "carbonyl reductases in HLM", "assay": "Inhibition of carbonyl reduction of F18 (formation of M3-1 and M3-2) by chemical inhibitors in HLM", "type": "in vitro ADME, human", "conditions": "NADPH, F18 10 μM, 30 min", "experimental": "F18 (10 μM) was incubated with HLMs (0.5 mg/mL) and the NADPH-generating system for 30 min or with HLcy and a cofactor (NADPH or NADH) for 10 min in the presence of chemical inhibitors under the above-described conditions. Control incubations using the vehicles but not the chemical inhibitors were also performed. The formation of M3-1 and M3-2 was quantified by LC-MS/MS.\n(§1) The amounts of F18, M1, M2-9, M3-1, M3-2, M5-2, M5-3, M5-4, and M5-5 in the incubations were simultaneously quantified with the LC-MS/MS system. […] The sheath gas, auxiliary gas, spray voltage and tube lens parameters were the same as those for the metabolic profiling studies."}, "CYP2E1": {"system": "CYP2E1", "conditions": "cited from earlier work"}, "CYPs and FMOs in HLMs": {"system": "CYPs and FMOs in HLMs", "assay": "Microsomal incubations of F18 with chemical inhibitors of CYPs or thermal inactivation of FMOs", "experimental": "(§2) The contributions of CYPs and FMOs to the metabolism of F18 were investigated by chemical inhibition and thermal inactivation, respectively. […] Briefly, F18 (10 μM) was incubated with HLMs (0.5 mg protein/mL) and an NADPH-generating system in the absence and presence of CYP inhibitors at 37°C for 30 min, and the reaction was terminated with two volumes of ice-cold acetonitrile. […] In brief, HLMs (0.5 mg protein/mL) were preheated at 50°C for 5 min and then immersed in an ice-cold bath. After the addition of F18 (10 μM) and equilibration for 3 min at 37°C, the reaction was started by the addition of the NADPH-generating system. After a 30-min incubation, the reactions were terminated as described above. […] The formation of the major metabolites M1, M2-9, M3-1, M3-2, M5-2, M5-3, M5-4, and M5-5 was analyzed by LC-MS/MS.\nas §1"}, "CYP2C9": {"system": "CYP2C9", "set-up": "method as in unpublished data", "conditions": "previous study; ref unpublished data; cited from earlier work"}, "CYP3A4 [2]": {"system": "CYP3A4", "set-up": "method as in unpublished data", "conditions": "previous study; ref unpublished data; cited from earlier work"}, "[3]": {"assay": "Pharmacokinetics in rats after oral administration of F18", "type": "in vivo, Sprague-Dawley rats", "conditions": "rat blood, oral F18 50 mg/kg, mean ± SD, n = 5", "experimental": "To investigate the pharmacokinetic characteristics of F18 and its major metabolites, five rats were intragastrically administered F18 at a dose of 50 mg/kg. Blood samples were collected in heparinized ice-bath tubes from the suborbital veniplex at 0, 0.25, 0.5, 1, 2, 4, 6, 8, 12, 16, and 24 h postdose. The blood concentrations of F18 and its major metabolites were determined by LC-MS/MS and their pharmacokinetic parameters were calculated through non-compartmental analysis using WinNonlin Version 6.1 (Pharsight, Mountain View, CA, USA).\nFor the blood samples, F18, M1, M3-1, and M3-2 were simultaneously quantified using the following elution gradient: Solvent B was maintained at 15% for 2 min, increased to 85% in 1 min, maintained at 85% for 5 min, decreased to 15% in 0.5 min and maintained at 15% for 4.5 min. Detection was also performed using a Finnigan TSQ Quantum MS instrument with an electrospray ionization probe operated in the positive mode.\nCalibration curves for F18 and its metabolites were fitted via linearly weighted (1/x^2) least-squares regression. The correlation coefficient values of F18 and its metabolites in the incubations were >0.99 for the range 10–5,000 nM; the LOQ was 10 nM with a signal-to-noise ratio >10:1; the accuracies were 90–113% and the precisions (RSD) were <10.5%. In the blood samples, the correlation coefficient values for F18, M1, M3-1, and M3-2 were >0.99 for the range 5–2,000 nM; the LOQ was 5 nM with the signal-to-noise ratio >10:1; the accuracies were 91–112% and the precisions (RSD) were <9.6%. In addition, no interference was found in the retention time of each analyte in both the incubated samples and the blood samples."}, "HIV-1": {"system": "HIV-1", "conditions": "ref Xue et al., 2010, cited from earlier work"}, "CYP2C19 [4]": {"system": "CYP2C19", "set-up": "method as in unpublished data", "conditions": "previous study; ref unpublished data; cited from earlier work"}, "VSV-G/HIV-1 viruses": {"system": "VSV-G/HIV-1 viruses", "assay": "microbe, parasite or virus in culture", "type": "cell-based", "conditions": "Human immunodeficiency virus 1, HEK-293T, 48 h, read-out: IC50, inhibition of HIV-1 replication"}, "recombinant CYP3A4": {"molecular_target": "T1, recombinant CYP3A4 (Homo sapiens, UniProt P08684)", "T1 construct": "purchased BD Gentest (Woburn, MA, USA)", "assay": "Metabolism of F18 by cDNA-expressed CYP3A4", "type": "in vitro ADME", "conditions": "F18 10 μM, 50 pmol/mL enzyme, 1 h; among 14 CYP isoforms", "experimental": "To further verify the roles of CYPs and FMOs in the metabolism of F18 in humans, F18 (10 μM) was incubated individually with 14 cDNA-expressed human CYP isozymes (50-pmol/mL CYP1A1, CYP1A2, CYP2A6, CYP2B6, CYP2C8, CYP2C9, CYP2C19, CYP2D6, CYP2E1, CYP2J2, CYP3A4, CYP4F2, CYP4F3, and CYP4A11) and three cDNA-expressed FMO enzymes (50-pmol/mL FMO1, FMO3, and FMO5). The incubation conditions were similar to those used for HLMs (described above), with the exception of the incubating time […]. Samples incubated without NADPH were used as the negative control."}, "CYP1A2 [5]": {"system": "CYP1A2", "set-up": "method as in unpublished data", "conditions": "previous study; ref unpublished data; cited from earlier work"}, "[6]": {"system": "Y181C single mutation of HIV-1", "conditions": "ref Xue et al., 2010; cited from earlier work"}, "CYP1A2 [7]": {"system": "CYP1A2", "conditions": "cited from earlier work"}, "[8]": {"set-up": "method as in Creagh et al., 2001; Eiznhamer et al., 2002", "conditions": "ref Creagh et al., 2001; Eiznhamer et al., 2002; cited from earlier work"}, "CYP2D6": {"system": "CYP2D6", "conditions": "cited from earlier work"}, "CYP3A4 [9]": {"system": "CYP3A4", "assay": "Microsomal incubations of F18 with chemical inhibitors of CYPs or thermal inactivation of FMOs", "conditions": "human, human liver microsomes", "experimental": "as §2, §1"}, "CYP3A4/5": {"system": "CYP3A4/5", "conditions": "cited from earlier work"}, "CYP2C19 [10]": {"system": "CYP2C19", "conditions": "cited from earlier work"}, "[11]": {"conditions": "high concentration: 18β-glycyrrhetinic acid 0.5 μM, 2-CEE 5 mM"}, "[12]": {"conditions": "low concentration: 18β-glycyrrhetinic acid 0.1 μM, 2-CEE 1 mM"}, "[13]": {"conditions": "HLMs preheated at 50°C for 5 min, F18 10 μM"}},
  "note": "Where two headings read alike, the source gives them in different places.",
  "data": [
    {"smiles": "CC1(C)[C@@H](O)CC[C@]2(C)[C@H]3C(=O)C=C4[C@@H]5C[C@@](C)(C(=O)O)CC[C@]5(C)CC[C@@]4(C)[C@]3(C)CC[C@@H]12", "note": "[18β-Glycyrrhetinic, 18β-glycyrrhetinic acid]", "values": [
      {"measurement": "Percentage of inhibition of the formation of M3-1, H", "setting": "[1]; [11]", "value": 13.7, "unit": "%"},
      {"measurement": "Percentage of inhibition of the formation of M3-2, H", "setting": "[1]; [11]", "value": 67.5, "unit": "%"},
      {"measurement": "Percentage of inhibition of the formation of M3-1, L", "setting": "[1]; [12]", "value": 1.2, "unit": "%"},
      {"measurement": "Percentage of inhibition of the formation of M3-2, L", "setting": "[1]; [12]", "value": 51.4, "unit": "%"}
    ]},
    {"smiles": "Cc1ncsc1CCCl", "note": "[Clomethiazole]", "values": [
      {"measurement": "Ki", "setting": "CYP2E1", "value": 12000, "unit": "nM"}
    ]},
    {"smiles": "CCCc1cc(=O)oc2c3c(c4c(c12)OC(C)(C)C=C4)OC(CCl)CC3=O", "note": "(centres unmarked) [Metabolite F18, 10-Chloromethyl-11-demethyl-12-oxo-calanolide A]", "values": [
      {"measurement": "Formation of M3-1 after thermal inactivation of FMOs", "setting": "CYPs and FMOs in HLMs; [13]", "value": "significantly inhibited"},
      {"measurement": "Reduction in M1 formation by thermal inactivation of FMOs", "setting": "CYPs and FMOs in HLMs; [13]", "value": 64, "unit": "%"},
      {"measurement": "Effect on CYP2C9", "setting": "CYP2C9", "value": "potent inhibitory effects"},
      {"measurement": "Effect on CYP3A4", "setting": "CYP3A4 [2]", "value": "activation-inducing effect"},
      {"measurement": "Cmax", "setting": "[3]; Sprague-Dawley", "value": "443 ± 107", "unit": "nM"},
      {"measurement": "Tmax", "setting": "[3]; Sprague-Dawley", "value": "3.3 ± 2.2", "unit": "h"},
      {"measurement": "half-life", "setting": "[3]; Sprague-Dawley", "value": "5.3 ± 2.8", "unit": "h"},
      {"measurement": "MRT last", "setting": "[3]; Sprague-Dawley, read-out: MRT0−t", "value": "7.8 ± 1", "unit": "h"},
      {"measurement": "MRT inf", "setting": "[3]; Sprague-Dawley, read-out: MRT0−∞", "value": "10 ± 2.4", "unit": "h"},
      {"measurement": "AUC0−∞", "setting": "[3]; 50 mg/kg", "value": "5,166 h^*nM"},
      {"measurement": "therapeutic (index)", "setting": "HIV-1", "value": 1417},
      {"measurement": "EC50", "setting": "HIV-1; read-out: half-maximal effective concentration (EC50)", "value": 7.4, "unit": "nM"},
      {"measurement": "Effect on CYP2C19", "setting": "CYP2C19 [4]", "value": "potent inhibitory effects"},
      {"measurement": "IC50", "setting": "VSV-G/HIV-1 viruses", "value": 190, "unit": "nM"},
      {"measurement": "Metabolic activity of recombinant CYP3A4 for the formation of M1, M2-9, M5-2, M5-3, M5-4, and M5-5", "setting": "recombinant CYP3A4", "value": "highest metabolic activity"},
      {"measurement": "Effect on CYP1A2", "setting": "CYP1A2 [5]", "value": "potent inhibitory effects"},
      {"measurement": "Potency against Y181C mutant HIV-1 (in words)", "setting": "[6]", "value": "extremely high potency"}
    ]},
    {"smiles": "CCOc1ccc(NC(C)=O)cc1", "note": "[Phenacetin]", "values": [
      {"measurement": "Km", "setting": "CYP1A2 [7]; read-out: substrate Km, CYP1A2, metabolite Acetaminophen, ref FDA Drug Development and Drug Interactions", "value": "1.7 to 152", "unit": "µM"}
    ]},
    {"smiles": "CCCc1cc(=O)oc2c3c(c4c(c12)OC(C)(C)C=C4)O[C@H](C)[C@@H](C)[C@@H]3O", "note": "[calanolide A, Calanolide A]", "values": [
      {"measurement": "Tolerability in Phase I studies", "setting": "[8]", "value": "well tolerated"}
    ]},
    {"smiles": "COc1ccc2c(c1)[C@]13CCCC[C@@H]1[C@H](C2)N(C)CC3", "note": "[dextromethorphan]", "values": [
      {"measurement": "Km", "setting": "CYP2D6", "value": "0.44 to 8.5", "unit": "µM"}
    ]},
    {"smiles": "C=CCSSCC=C", "note": "[diallyldisulfide]", "values": [
      {"measurement": "Ki", "setting": "CYP2E1", "value": 150000, "unit": "nM"}
    ]},
    {"smiles": "Cc1nc2c([nH]1)c(=O)n(C)c(=O)n2Cc1ccco1", "note": "[furaf ylline, furafylline]", "values": [
      {"measurement": "Ki", "setting": "CYP1A2 [7]", "value": "[…]"}
    ]},
    {"smiles": "CC(=O)N1CCN(c2ccc(OCC3COC(Cn4ccnc4)(c4ccc(Cl)cc4Cl)O3)cc2)CC1", "note": "(centres unmarked) [ketoconazole]", "values": [
      {"measurement": "inhibition at 30 min, 1 μM", "setting": "CYP3A4 [9]", "value": "> 80", "unit": "%"},
      {"measurement": "inhibition at 30 min, 1 μM", "setting": "CYP3A4 [9]; probe F18 (10 μM), formation of metabolite M1", "value": "20 to 30", "unit": "%"},
      {"measurement": "Ki", "setting": "CYP3A4/5", "value": "3.7 to 180", "unit": "nM"}
    ]},
    {"smiles": "Cc1ncc2n1-c1ccc(Cl)cc1C(c1ccccc1F)=NC2", "note": "[midazolam]", "values": [
      {"measurement": "Metabolism of probe substrate after thermal inactivation of HLMs", "setting": "CYPs and FMOs in HLMs", "value": "unchanged"},
      {"measurement": "Km", "setting": "CYP3A4/5", "value": "1 to 14", "unit": "µM"}
    ]},
    {"smiles": "C=C(C)[C@@H]1CCC2=CC(=O)C[C@@H](C)[C@]2(C)C1", "note": "[nootkatone]", "values": [
      {"measurement": "Ki", "setting": "CYP2C19 [10]", "value": 500, "unit": "nM"}
    ]},
    {"smiles": "C=C[C@H]1C[N@@]2CC[C@H]1C[C@@H]2[C@@H](O)c1ccnc2ccc(OC)cc12", "note": "[quinidine]", "values": [
      {"measurement": "Ki", "setting": "CYP2D6", "value": "[…]"}
    ]},
    {"smiles": "O=c1cc(-c2ccccc2)oc2c1ccc1ccccc12", "note": "[α-naphthoflavone]", "values": [
      {"measurement": "Ki", "setting": "CYP1A2 [7]; read-out: inhibitor Ki, CYP1A2, ref FDA Drug Development and Drug Interactions", "value": "[…]"}
    ]}
  ]
}
